# What was measured:
# COX-1 = molecular target: T1, COX-1 (Canis lupus familiaris, UniProt Q8HZR1); settings: cited from earlier work
# T1 sequence (Q8HZR1 28-603): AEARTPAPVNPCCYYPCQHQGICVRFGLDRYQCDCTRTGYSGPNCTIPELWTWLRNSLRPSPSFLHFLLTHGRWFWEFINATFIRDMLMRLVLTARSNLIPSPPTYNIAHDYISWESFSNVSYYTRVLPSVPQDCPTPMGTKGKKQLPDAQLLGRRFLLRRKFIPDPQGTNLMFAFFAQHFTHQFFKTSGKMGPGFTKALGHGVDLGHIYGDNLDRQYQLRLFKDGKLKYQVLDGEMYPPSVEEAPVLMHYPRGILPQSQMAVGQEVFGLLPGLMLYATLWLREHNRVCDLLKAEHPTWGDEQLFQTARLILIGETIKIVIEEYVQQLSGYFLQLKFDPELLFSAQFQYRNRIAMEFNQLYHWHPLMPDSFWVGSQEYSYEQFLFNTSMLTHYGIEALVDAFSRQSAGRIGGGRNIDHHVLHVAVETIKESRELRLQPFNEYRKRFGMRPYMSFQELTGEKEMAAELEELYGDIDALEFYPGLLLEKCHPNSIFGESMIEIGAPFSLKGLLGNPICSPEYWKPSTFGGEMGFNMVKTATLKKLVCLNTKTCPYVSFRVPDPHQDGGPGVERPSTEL
# COX-2 = molecular target: T2, COX-2 (Canis lupus familiaris, UniProt Q8SPQ9); settings: canine, relative to COX-1 column; cited from earlier work
# T2 sequence (Q8SPQ9 18-604): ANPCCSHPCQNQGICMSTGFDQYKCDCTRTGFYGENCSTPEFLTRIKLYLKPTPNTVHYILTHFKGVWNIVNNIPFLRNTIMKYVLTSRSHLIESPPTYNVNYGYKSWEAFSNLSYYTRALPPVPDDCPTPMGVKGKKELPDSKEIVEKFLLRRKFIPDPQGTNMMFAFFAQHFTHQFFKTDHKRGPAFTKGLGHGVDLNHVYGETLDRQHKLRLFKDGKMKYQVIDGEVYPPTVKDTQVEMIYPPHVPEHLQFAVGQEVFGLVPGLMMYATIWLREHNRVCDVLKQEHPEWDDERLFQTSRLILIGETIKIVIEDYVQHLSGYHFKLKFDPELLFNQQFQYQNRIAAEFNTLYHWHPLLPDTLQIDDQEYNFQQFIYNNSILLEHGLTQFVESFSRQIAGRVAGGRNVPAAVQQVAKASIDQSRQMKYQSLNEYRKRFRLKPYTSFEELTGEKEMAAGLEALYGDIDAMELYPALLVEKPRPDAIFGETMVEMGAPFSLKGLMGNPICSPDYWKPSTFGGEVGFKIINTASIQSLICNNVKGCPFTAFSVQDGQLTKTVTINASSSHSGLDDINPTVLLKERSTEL
# tetrameric avidin [1] = molecular target: T3, tetrameric avidin (Gallus gallus, UniProt P02701); experiment: RPM (x-ray fluorescence) measurement of sulfur in avidin-biotin complex versus avidin; format: binding; settings: 500 micrograms avidin, 0.20 millimolar biotin, pH 8.0, after ultrafiltration
# T3 construct: purchased Sigma-Aldrich
# T3 sequence (P02701 25-152): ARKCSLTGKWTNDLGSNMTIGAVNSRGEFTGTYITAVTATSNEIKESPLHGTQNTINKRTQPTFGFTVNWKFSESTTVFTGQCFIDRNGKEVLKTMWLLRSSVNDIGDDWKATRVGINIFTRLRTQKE
# From the text: Previous studies have shown that the ratio of sulfur in avidin-biotin:avidin is 19.5:16, or 1.22, see Green N. Mex. Purification of Avidin. Meth Enzymol. 1970, XVIII(A):414-417. […] We treated an avidin control sample identically. We used RPM to measure the sulfur content of the avidin-biotin complex and the avidin. We confirmed that the amount of avidin in each sample was identical using bicinchoninic acid protein assay kit (Pierce). As predicted, the avidin-biotin complex contained 1.2 times the sulfur than the avidin alone as measured by RPM.
# tetrameric avidin [2] = molecular target: T3, tetrameric avidin; settings: previous studies; cited from earlier work
# avidin = avidin (Gallus gallus, UniProt P02701); settings: 200 micrograms avidin and 0.20 millimolar LPA, same filtering
# Sequence of avidin (P02701 25-152): as above
# Experimental: […] We diluted this sample to 0.75 ml in TRIS buffer (pH 8.0), centrifuged for 2 hours at 7000 g, and repeated this process twice.
molecule,measurement,setting,value
CC(C(=O)O)c1cccc(C(=O)c2ccccc2)c1 (stereo not drawn) [Ketoprofen],selectivity in favor of COX-1 versus COX-2,COX-1; according to TABLE 3,1 to 0.6
same,"selectivity data, COX-1","COX-1; canine, relative to COX-2 column",1
same,"selectivity data, COX-2",COX-2,.6
O=C(O)CCCC[C@@H]1SC[C@@H]2NC(=O)N[C@@H]21 [biotin],sulfur in avidin-biotin complex relative to avidin alone as measured by RPM,tetrameric avidin [1],1.2 times
same,ratio of sulfur in avidin-biotin:avidin,tetrameric avidin [2],1.22
leucine phosphonic acid [LPA],phosphorus observed in control samples,avidin,no phosphorus was observed

# Reference: US10877035B2, “Advanced drug development and manufacturing” (ICAGEN, LLC, priority 2006, dated 2020)
